Where two headings read alike, the source gives them in different places.
Experiments:
[1] = physchem
[2] = Volatility of perfuming compounds in air; assay type: physicochemical
[3] = Log P (n-octanol/water) of perfuming compounds
[4] = Table 8, perfuming compounds having a sweet note
[5] = Table 9, perfuming compounds having a gourmand note
[6] = Table 10, perfuming compounds having a woody note
[7] = Table 6, perfuming compounds having a fruity note
[8] = perfuming compounds having a fruity note (Table 6)
[9] = n-octanol/water, perfuming compounds having a fruity note (Table 6)
[10] = Table 5, perfuming compounds having a green note

With `CC/C=C\CC1=C(C)CCC1=O` the logP ([1]; n-octanol/water) was 2.61, the “Volatility (μg/l air)” value [2, 4] was 56.72 μg/l air and the “Volatility (μg/l air)” value [2, 5] was 56.72 μg/l air. For the same molecule, the “Log P (n-octanol/water)” value [3, 5] was 2.61.

In the case of `CC(=O)CCC1=C(C)CCCC1(C)C`, the logP ([1]; n-octanol/water) is reported as 3.99, the “Volatility (μg/l air)” value [2, 4] is reported as 63.61 μg/l air and the “Volatility (μg/l air)” value [2, 6] is reported as 63.61 μg/l air. The “Log P (n-octanol/water)” value [3, 6] was 3.99.

For `COc1cc(C=O)ccc1OC(=O)C(C)C`, the logP ([1]; n-octanol/water) was 1.9, the “Volatility (μg/l air)” value [2, 7] was 1.01 μg/l air and the “Volatility (μg/l air)” value [2, 4] was 1.01 μg/l air. For the same molecule, the “Volatility (μg/l air)” value [2, 5] was 1.01 μg/l air, the “Log P (n-octanol/water)” value [3, 4] was 1.90 and the “Log P (n-octanol/water)” value [3, 5] was 1.90.

For `CCC(=O)/C=C/C1=C(C)CCCC1(C)C`, the logP ([1]; n-octanol/water) was 4.47, the “Volatility (μg/l air)” value [2, 4] was 15.81 μg/l air and the “Volatility (μg/l air)” value [2, 5] was 15.81 μg/l air. For the same molecule, the “Log P (n-octanol/water)” value [3, 5] was 4.47.

With `C/C=C/C(=O)C1=C(C)CCCC1(C)C` the logP ([1]; n-octanol/water) was 3.63, the “Volatility (μg/l air)” value [2, 7] was 81.66 μg/l air and the “Volatility (μg/l air)” value [2, 6] was 81.66 μg/l air. For the same molecule, the “Log P (n-octanol/water)” value [3, 6] was 3.63.

For `CC1(C)[C@@H]2CC[C@@]1(C)C(=O)C2`, the Volatility [2, 8] was 555.04 μg/l air and the “Log P (n-octanol/water)” value [3, 9] was 2.50.

With `CC1(C)C2C[C@H]3CCC(=O)C=C3[C@@H]1C2` the “Volatility (μg/l air)” value [2, 6] was 4.86 μg/l air and the “Log P (n-octanol/water)” value [3, 6] was 3.00.

With `CCCC(C)=CCOC(C)=O` (mixture of isomers) the Volatility [2, 10] was 4131.05 μg/l air, the Volatility [2, 8] was 4131.05 μg/l air and the “Log P (n-octanol/water)” value [3, 10] was 3.11. For the same molecule, the “Log P (n-octanol/water)” value [3, 9] was 3.11.

For `CC(=O)OCC=C(C)CCC=C(C)C` (mixture of isomers) [GERANYL ACETATE (A) + NERYL ACETATE (B)], the Volatility [2, 10] was 85.23 μg/l air and the “Log P (n-octanol/water)” value [3, 10] was 3.99.

For `C/C=C/C(=O)[C@@H]1[C@@H](C)C=CCC1(C)C` (racemic), the logP ([1]; n-octanol/water) was 4.13, the “Volatility (μg/l air)” value [2, 4] was 143.53 μg/l air and the “Volatility (μg/l air)” value [2, 5] was 143.53 μg/l air. For the same molecule, the “Log P (n-octanol/water)” value [3, 5] was 4.13.

With `CC1CCC2(O1)C(C)(C)CCCC2(C)O` (racemic) the “Volatility (μg/l air)” value [2, 6] was 84.04 μg/l air and the “Log P (n-octanol/water)” value [3, 6] was 3.51.

In the case of `CC1CC(C)(c2ccccc2)CO1` (racemic), the logP ([1]; n-octanol/water) is reported as 3.02 and the “Log P (n-octanol/water)” value [3, 9] is reported as 3.02.

In the case of `C=C(C)CC(C)OC(=O)C(C)C` (racemic), the logP ([1]; n-octanol/water) is reported as 3.57, the “Volatility (μg/l air)” value [2, 4] is reported as 9902.98 μg/l air and the “Volatility (μg/l air)” value [2, 5] is reported as 9902.98 μg/l air. For the same molecule, the “Log P (n-octanol/water)” value [3, 4] was 3.57 and the “Log P (n-octanol/water)” value [3, 5] was 3.57.

In the case of `CC1=C[C@H](C)[C@H]2[C@H](CCC(C)(C)[C@H]2O)C1` (racemic), the logP ([1]; n-octanol/water) is reported as 5.24 and the “Log P (n-octanol/water)” value [3, 7] is reported as 5.24.

For `C/C=C/C(=O)C1C(C)=CCCC1(C)C` (racemic), the logP ([1]; n-octanol/water) was 3.65, the “Volatility (μg/l air)” value [2, 7] was 113.31 μg/l air and the “Log P (n-octanol/water)” value [3, 7] was 3.65. The “Log P (n-octanol/water)” value [3, 4] was 3.65 and the “Log P (n-octanol/water)” value [3, 6] was 3.65.

For `CC(=O)C=CC1C(C)CCC(C)C1(C)C` (racemic), the “Volatility (μg/l air)” value [2, 6] was 20.50 μg/l air and the “Log P (n-octanol/water)” value [3, 6] was 4.62.

For `C=C(C)CC(C(C)=O)C(=O)OCC` (racemic), the logP ([1]; n-octanol/water) was 2.15 and the “Log P (n-octanol/water)” value [3, 9] was 2.15.

With `CC(=O)OC(c1ccccc1)C(Cl)(Cl)Cl` (racemic) [(+−)-2,2,2-TRICHLORO-1-PHENYLETHYL ACETATE] the logP ([1]; n-octanol/water) was 3.2 and the “Log P (n-octanol/water)” value [3] was 3.20.

For `CCCCCC1CCCC1=O` (racemic) [(+−)-2-pentylcyclopentanone], the logP ([1]; n-octanol/water) was 3.62, the “Volatility (μg/l air)” value [2, 4] was 560.22 μg/l air and the “Volatility (μg/l air)” value [2, 5] was 560.22 μg/l air. The “Log P (n-octanol/water)” value [3, 4] was 3.62 and the “Log P (n-octanol/water)” value [3, 5] was 3.62.

With `CCCC(S)CCOC(C)=O` (racemic) [(+−)-3-mercaptohexyl acetate] the logP ([1]; n-octanol/water) was 2.64 and the “Log P (n-octanol/water)” value [3, 9] was 2.64.

In the case of `CC1CCC(=O)O1` (racemic) [(+−)-4-PENTANOLIDE], the logP [1] is reported as -0.12 and the “Log P (n-octanol/water)” value ([3]; Table 7, citrus note) is reported as −0.12.

For `CCCCCCCC1CCCC(=O)O1` (racemic) [(+−)-6-heptyltetrahydro-2H-pyran-2-one], the logP ([1]; n-octanol/water) was 3.42, the “Volatility (μg/l air)” value [2, 7] was 0.90 μg/l air and the “Volatility (μg/l air)” value [2, 4] was 0.90 μg/l air. The “Volatility (μg/l air)” value [2, 5] was 0.90 μg/l air, the “Log P (n-octanol/water)” value [3, 4] was 3.42 and the “Log P (n-octanol/water)” value [3, 5] was 3.42.

With `CCCCCC1CCCC(=O)O1` (racemic) [(+−)-6-pentyltetrahydro-2H-pyran-2-one] the logP ([1]; n-octanol/water) was 2.22, the “Volatility (μg/l air)” value [2, 7] was 9.61 μg/l air and the “Volatility (μg/l air)” value [2, 4] was 9.61 μg/l air. For the same molecule, the “Volatility (μg/l air)” value [2, 5] was 9.61 μg/l air, the “Log P (n-octanol/water)” value [3, 4] was 2.22 and the “Log P (n-octanol/water)” value [3, 5] was 2.22.

With `CCCC1CCCC(=O)O1` (racemic) [(+−)-6-propyltetrahydro-2H-pyran-2-one] the logP ([1]; n-octanol/water) was 1.47 and the “Log P (n-octanol/water)” value ([3]; Table 7, citrus note) was 1.47.

For `COC1(C)CCC23CC1C(C)(C)C2CCC3C` (racemic) [(+−)-8-methoxycedrane], the “Volatility (μg/l air)” value [2, 6] was 42.22 μg/l air and the “Log P (n-octanol/water)” value [3, 6] was 7.59.

For `CCOC(=O)C(C)CC` (racemic) [(+−)-ethyl 2-methylbutanoate], the logP ([1]; n-octanol/water) was 2.58 and the “Log P (n-octanol/water)” value [3, 9] was 2.58.

For `CCCCCC1C(=O)CCC1CC(=O)OC` (single isomer, unassigned; (+)), the “Volatility (μg/l air)” value [2, 6] was 1.71 μg/l air and the “Log P (n-octanol/water)” value [3, 6] was 2.95.

For `CC(=O)OC(C)CCC=C(C)CCC=C(C)C` (centres unmarked) [1,5,9-TRIMETHYL-4,8-DECADIENYL ACETATE], the logP ([1]; n-octanol/water) was 5.28 and the “Log P (n-octanol/water)” value [3, 7] was 5.28.

For `C=CCCC(=O)C1=CCCC(C)(C)C1` [1-(5,5-dimethyl-1-cyclohexen-1-yl)-4-penten-1-one], the logP ([1]; n-octanol/water) was 3.89 and the “Log P (n-octanol/water)” value [3, 7] was 3.89.

With `O=C(Cc1ccccc1)OCCc1ccccc1` [2-PHENYLETHYL PHENYLACETATE] the logP [1] was 3.59, the “Log P (n-octanol/water)” value ([3]; Table 7, citrus note) was 3.59 and the “Log P (n-octanol/water)” value [3, 4] was 3.59. The “Log P (n-octanol/water)” value [3, 5] was 3.59.

Reference: patent US11427783B2, “Perfuming compositions” (Firmenich SA, priority 2016, dated 2022)
